Measured values: PubChem BioAssay (NCI)
“And” between values parts separate entries of the source, which are not always exact repeats. Equal values may be shown once.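 Values below derive from 48-hour exposures of cells grown in 96-well plates, with endpoints linearly interpolated between the two concentrations bracketing the appropriate inhibition level. The concentration for 50% growth inhibition is given as GI50. TGI denotes the concentration required for complete inhibition of growth.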 Where a SMILES comes first, the peptide text is derived from it. [ ]: non-standard residue; d: D form. The star is where a group is joined. ξ: configuration not given here. X3 = COc1ccc(C(N*)c2ccc(OC)cc2)cc1; NMeF = CN[C@@H](Cc1ccccc1)C(=O)O; NMeD = CN[C@@H](CC(=O)O)C(=O)O; NMeV = CN[C@H](C(=O)O)C(C)C; ξNMeV = CNC(C(=O)O)C(C)C; Boc = CC(C)(C)OC(=O)*; ξNMeA = CNC(C)C(=O)O; ξV = CC(C)C(N)C(=O)O

Columns and labels:
Test in all cases: inhibition of tumour cell growth, NCI panel, 48 h
COLO 205 colon = test system: COLO 205 colon
DU-145 prostate = test system: DU-145 prostate
HCT-15 colon = test system: HCT-15 colon
HL-60(TB) leukemia = test system: HL-60(TB) leukemia
HT29 colon = test system: HT29 colon
OVCAR-4 ovarian = test system: OVCAR-4 ovarian
RXF 393 renal = test system: RXF 393 renal
SK-MEL-5 melanoma = test system: SK-MEL-5 melanoma
SK-OV-3 ovarian = test system: SK-OV-3 ovarian
SR leukemia = test system: SR leukemia

SMILES	TGI (COLO 205 colon)	TGI (DU-145 prostate) [µM]	TGI (HCT-15 colon)	TGI (HL-60(TB) leukemia)	TGI (HT29 colon)	TGI (OVCAR-4 ovarian)	TGI (RXF 393 renal) [µM]	TGI (SK-MEL-5 melanoma)	TGI (SK-OV-3 ovarian)	TGI (SR leukemia)	GI50 (COLO 205 colon) [nM]	GI50 (DU-145 prostate) [nM]	GI50 (HCT-15 colon) [µM]	GI50 (HL-60(TB) leukemia) [µM]	GI50 (HT29 colon) [nM]	GI50 (OVCAR-4 ovarian) [nM]	GI50 (RXF 393 renal) [nM]	GI50 (SK-MEL-5 melanoma) [nM]	GI50 (SK-OV-3 ovarian) [nM]	GI50 (SR leukemia) [nM]
CC(=O)CC(OC(C)=O)C1=CCC2C(CC1C)OC(=O)C2C (configuration not stated)	> 100 µM	> 100	> 100 µM	> 100 µM	> 100 µM	> 100 µM	> 100	> 100 µM	> 100 µM	> 100 µM	–	–	–	–	–	–	–	–	–	–
Nc1cc(NN=C(c2ccc(O)cc2)c2ccc(O)cc2)c([N+](=O)[O-])cc1[N+](=O)[O-]	4.49 µM	2.99	4.13 µM	14 µM	8.19 µM	7.47 µM	3.15	2.85 µM	6.4 µM	7.48 µM	1850	1640	1.78	3.04	2630	2540	1590	1520	2350	2030
CCOC(=O)C1=C(C)N(c2ccc(F)cc2F)[C@]2(C#N)C(O)=C(Cl)C(Cl)=C(O)[C@]12C#N	> 100 µM	> 100	> 100 µM	> 100 µM	> 100 µM	> 100 µM	> 100	> 100 µM	> 100 µM	95.9 µM	> 100000	> 100000	> 100	> 100	> 100000	> 100000	> 100000	> 100000	> 100000	34500
Nc1n[nH]c2cc(F)c([C@@H]3Nc4ccc5[nH]ncc5c4[C@H]4C5CCC(C5)[C@@H]34)cc12 (some centres not stated)	0.527 µM	8.75	9.04 µM	1.67 µM	> 50 µM	> 50 µM	2.52	0.355 µM	> 32.1 µM	> 50 µM	162	205	0.159	0.149	182	327	124	128	359	125
COCCOc1ccc(-c2nc3ccc(-c4nc5ccc(N6CCN(C)CC6)cc5[nH]4)cc3[nH]2)cc1	3.05 µM	9.59	> 100 µM	91.8 µM	> 100 µM	3 µM	3.63	1.88 µM	15.6 µM	21.9 µM	371	1130	38.7	1.62	579	313	1800	351	2700	500
COc1ccc(C(NC(=O)C[C@@H](C(=O)N(C)C(C)C(=O)O)N(C)C(=O)[C@@H]2CCCN2C(=O)[C@H](C(C)C)N(C)C(=O)C(C(C)C)N(C)C(=O)[C@H](Cc2ccccc2)N(C)C(=O)C(NC(=O)OC(C)(C)C)C(C)C)c2ccc(OC)cc2)cc1 (some centres not stated) (Boc-[ξV][NMeF][ξNMeV][NMeV]P[NMeD](X3)[ξNMeA]-OH)	32.1 µM and 30.9 µM	37.5	37.5 µM and 33.3 µM	18.7 µM and 45.2 µM	37.2 µM and 32.4 µM	37.5 µM and 64.5 µM	18.5	12.7 µM and 28.5 µM	> 37.5 µM and 33.3 µM	37.5 µM and 36 µM	17200	–	18.2	24	–	24800	–	15200	19200	3.75
COc1ccc2nc3cc(Cl)ccc3c(NCCNCC(C)O)c2c1 (configuration not stated)	2.79 µM	8.57	4.36 µM	6.05 µM	3.03 µM	4.8 µM	3.37	3.06 µM	9.75 µM	8.04 µM	1110	2120	1.21	1.9	691	1570	1610	1680	2580	1090
CCn1c(-c2nonc2N)nc2c(C#CC(C)(C)O)nc(OC[C@@H](N)c3ccccc3)cc21	8.31 µM	8.85	21.1 µM	10.3 µM	9.53 µM	13.3 µM	5.97	7.37 µM	9.47 µM	16.8 µM	4680	4450	5.78	5.23	4900	6780	2850	3990	4160	5670
COc1cccc(C(=O)NC(c2ccc(C)cc2)c2cc(Cl)c3cccnc3c2O)c1 (configuration not stated)	1.86 µM	14.3	28.2 µM	2.84 µM	19.8 µM	10.2 µM	3.44	1.32 µM	11.3 µM	5.66 µM	387	1140	0.309	0.427	623	298	736	318	682	538
O=C(/C=C/c1ccc(O)cc1)c1ccc(O)cc1	> 65.9 µM	99.9	57.5 µM	> 75.1 µM	48.5 µM	> 100 µM	50.1	44.2 µM	> 100 µM	51.3 µM	–	–	–	–	–	–	–	–	–	–
N#Cc1c[nH]n2c(N=Nc3ccc(Cl)cc3)c(O)nc12	> 100 µM	> 100	62.9 µM	> 100 µM	> 100 µM	> 100 µM	> 100	43.7 µM	> 100 µM	> 100 µM	29000	42600	22	> 100	50200	57300	29700	20800	37000	25400
c1ccc(Sc2ncnc3ccccc23)cc1	28.3 µM	24.9	37.2 µM	27.9 µM	44.7 µM	> 100 µM	27.1	24 µM	49.6 µM	53.1 µM	15000	12000	8.03	6.37	19300	8050	13400	11400	22100	4780
